# From patent US20160355544A1, “NOVEL CHOLESTEROL METABOLITE, 5-CHOLESTEN, 3BETA-25-DIOL, DISULFATE (25HCDS) FOR THERAPY OF METABOLIC DISORDERS, HYPERLIPIDEMIA, DIABETES, FATTY LIVERS DISEASES AND ATHEROSCLEROSIS” (priority 2012, published 2016)
# Where “and” joins values, the source holds several entries; their conditions need not be identical. Equal values may be shown once.
# Legend:
# [1] = Liver function assays in sera of HFD-fed mice; assay type: in vivo, C57BL/6J mice; conditions: data not shown
# Method: (§1) Animal studies were approved by Institutional Animal Care and Use Committee of McGuire Veterans Affairs Medical Center and were conducted in accordance with the Declaration of Helsinki, the Guide for the Care and Use of Laboratory Animals, and all applicable regulations. To examine the effect of 25HCDS on diet-induced lipid accumulation in sera and liver, 8-week-old female C57BL/6J mice (Charles River, Wilmington, Mass.) were fed high fat diet (HFD) (Harlan Teklad, Madison, Wis.) containing 42% kcal from fat, 43% kcal from carbohydrate, 15% kcal from protein and 0.2% cholesterol for 10 weeks. All mice were housed under identical conditions in an aseptic facility and given free access to water and food. At the end of each period, the mice were intraperitoneally injected with vehicle solution (ethanol/PBS; Vehicle), or 25HCDS (25 mg/kg) once every three days for 6 weeks and fasted for overnight; and blood samples were collected. Serum triglyceride, total cholesterol, high density lipoprotein-cholesterol, glucose, alkaline phosphatase (ALK), alanine aminotransferase (ALT), and aspartate aminotransferase (AST) were measured using standard enzymatic techniques in the clinical laboratory at McGuire Veterans Affairs Medical Center. Lipoprotein profiles in sera were analyzed by HPLC as described below.
# [2] = tested on: PPARγ; experiment: PPARγ mRNA regulation by 25HC3S (comparison in discussion); conditions: administration of 25HC3S, compared with 25HCDS
# [3] = tested on: THP-1 macrophages; experiment: mRNA levels in THP-1 macrophages by real-time RT-PCR; assay type: cell-based, Human
# Method: Human THP-1 monocytes and HepG2 cells were purchased from the American Type Culture Collection (ATCC, Manassas, Va.) and maintained according to the supplier's protocols. THP-1 monocytes were differentiated to macrophages by adding 100 nM of phorbol 12-myristate 13-acetate (PMA). When cells reached ˜90% confluence, 25HCDS in ethanol (the final concentration of ethanol in media was 0.1%) was added. The cells were harvested at the indicated times for protein, mRNA, and lipid analysis.
# (§2) Total RNA was isolated with SV Total RNA Isolation Kit (Promega, Madison, Wis.), which included DNase treatment. Total RNA, 2 μg, was used for the first-strand cDNA synthesis as recommended by the manufacturer (Invitrogen, Carlsbad, Calif.). Real-time RT-PCR was performed using a suitable dye as indicator on ABI 7500 Fast Real-Time PCR System (Applied Biosystems, Foster City, Calif.). All primer/probe sets for real-time PCR were TaqMan gene expression assays (Applied Biosystems, Foster City, Calif.). Amplifications of β-actin and glyceraldehyde 3-phosphate dehydrogenase (GAPDH) were used as internal controls. Relative messenger RNA (mRNA) expression was quantified with the comparative cycle threshold (Ct) method and was expressed as 2^−ΔΔct. The sequences of suitable primers for amplification are described, for example, in Ren et al., 2007 (1).
# [4] = tested on: HFD-fed mice; experiment: Quantification of hepatic lipids in mouse NAFLD model (HFD-fed mice); assay type: in vivo, C57BL/6J mice
# Method: as §1
# Liver tissues were homogenized, and lipids were extracted with a mixture of chloroform and methanol (2:1), and filtered. The extracts, 0.2 ml, were evaporated to dryness and dissolved in 100 μl of isopropanol containing 10% of TRITON™ X-100 (C14H22O(C2H4O)n), a nonionic surfactant) for cholesterol assay (Wako Chemicals USA, Richmond, Va.), the NEFA solution (0.5 g of EDTA-Na2, 2 g of TRITON™ X-100, 0.76 ml of IN NaOH, and 0.5 g of sodium azide/l, pH 6.5) for free fatty acid assay (Wako Chemicals USA, Richmond, Va.), or isopropanol only for triglyceride assay (Fisher Scientific, Pittsburgh, Pa.). All of the assays were performed according to the manufacturer's instructions, respectively. Each lipid concentration was normalized to liver weight.
# [5] = Body mass, caloric intake, liver weight and toxicity during long-term treatment of HFD-fed mice; assay type: in vivo, C57BL/6J mice
# Method: as §1
# To study the effects of long-term treatment of 25HCDS on lipid homeostasis, 8-week-old C57BL/6J female mice were fed a HFD for 10 weeks, and then divided into two groups. One group was treated with 25HCDS and the other with vehicle by peritoneal injection once every three days for six weeks. During the treatment, the mice were fed a HFD, and body mass and caloric intakes were monitored. […] After 6 weeks of injections, the mice were fasted overnight, and sacrificed.
# [6] = tested on: Hepatic mRNA Expression involved in inflammatory responses in the Mice Fed a HFD; experiment: Relative hepatic mRNA expression of inflammatory response genes in HFD-fed mice (real-time RT-PCR); assay type: in vivo, C57BL/6J mice
# Method: as §2, §1
# [7] = tested on: Hepatic mRNA Expression involved in lipid metabolism in the Mice Fed a HFD; experiment: Relative hepatic mRNA expression of lipid metabolism genes in HFD-fed mice (real-time RT-PCR); assay type: in vivo, C57BL/6J mice; conditions: 25HCDS 25 mg/kg i.p. once every three days for 6 weeks, HFD vehicle = 1.0, mean ± SD, n = 7
# Method: as §2, §1
# [8] = concentration dependent and time dependent, FIG. 5A
# [9] = HFD-fed mice, 25 mg/kg i.p. once every three days for 6 weeks, versus HFD vehicle, 25 mg/kg
# [10] = in vivo studies, 25HCDS administration
# [11] = HFD-fed mice during 6 weeks of treatment, versus vehicle, data not shown
# [12] = 25 mg/kg i.p. once every three days for 6 weeks, versus HFD vehicle
# [13] = 25HCDS 25 mg/kg i.p. once every three days for 6 weeks, HFD vehicle = 1.0, mean ± SD, n = 7
compound,measurement,setting,value
"C[C@H](CCCC(C)(C)O)[C@H]1CC[C@H]2[C@@H]3CC=C4C[C@@H](OS(=O)(=O)O)CC[C@]4(C)[C@H]3CC[C@]12C [25HC3S, 5-Cholesten-3β, 25-diol 3-sulfate]",alkaline phosphatase activity in sera,[1],decreasing
same,PPARγ mRNA,[2],only slightly increases
"C[C@H](CCCC(C)(C)OS(=O)(=O)O)[C@H]1CC[C@H]2[C@@H]3CC=C4C[C@@H](OS(=O)(=O)O)CC[C@]4(C)[C@H]3CC[C@]12C [25HCDS, 5-cholesten-3β, 25-diol, disulfate]",PPARγ mRNA levels,"[3]; FIG. 5C, 5D",linearly increased
same,expression of SREBP1/2,[3]; FIGS. 5A and 5B,decreases
same,IκBα expression,[3]; at an early stage and at low concentrations,coincidently increased
same,ACC mRNA levels,[3]; [8],decreases
same,FAS mRNA levels,[3]; [8],decreases
same,HMG-CoA reductase mRNA levels,"[3]; concentration dependent and time dependent, FIG. 5B",decreases
same,decrease of total cholesterol in liver tissue,"[4]; HFD-fed mice, 25 mg/kg i.p. once every three days for 6 weeks, versus HFD vehicle",30%
same,decrease of free fatty acids in liver tissue,[4]; [9],20% and 25%
same,decrease of triglycerides in liver tissue,[4]; [9],18% and 20%
same,decrease of hepatic neutral lipids,[4]; [10],20-35%
same,body mass,[5]; [11],No significant difference
same,caloric intakes,[5]; [11],No significant difference
same,liver weights,"[5]; after 6 weeks of injections, data not shown",did not show significant differences
same,toxicity,[5]; [10],without exhibiting toxicity
same,increase of PGC-1α expression in the liver,[6]; [12],2 fold
same,suppression of IL1β expression in liver,[6]; [12],36%
same,suppression of TNFα expression in liver,[6]; [12],50%
same,IL1α relative hepatic mRNA expression,[6]; [13],1.02 ± 0.20
same,IL1β relative hepatic mRNA expression,[6]; [13],0.64 ± 0.16
same,IkBα relative hepatic mRNA expression,[6]; [13],1.35 ± 0.27
same,PGC-1α relative hepatic mRNA expression,[6]; [13],2.11 ± 0.82
same,PPARα (Peroxisome proliferator-activated receptor gamma) relative hepatic mRNA expression,[6]; [13],1.27 ± 0.52
same,TNFv (Tumor necrosis factor a) relative hepatic mRNA expression,[6]; [13],0.50 ± 0.21
same,ACC1 relative hepatic mRNA expression,[7],0.86 ± 0.18
same,CD36 relative hepatic mRNA expression,[7],0.69 ± 0.29
same,FAS relative hepatic mRNA expression,[7],0.68 ± 0.17
same,GPAM relative hepatic mRNA expression,[7],0.74 ± 0.18
same,HMGR relative hepatic mRNA expression,[7],0.84 ± 0.07
same,LDLR relative hepatic mRNA expression,[7],0.62 ± 0.08
same,MTTP relative hepatic mRNA expression,[7],0.94 ± 0.17
same,PLTP relative hepatic mRNA expression,[7],0.68 ± 0.21
same,SREBP-1c relative hepatic mRNA expression,[7],0.64 ± 0.14
same,SREBP-2 relative hepatic mRNA expression,[7],1.12 ± 0.25
